In ChEMBL document CHEMBL4145688, “Potent and Orally Bioavailable Inverse Agonists of RORγt Resulting from Structure-Based Design” (J Med Chem, 2018):
≈ marks a conversion by molar mass, not a printed value.

What was measured:
[1] = Volume of distribution at steady state in Han Wistar rat at 0.5 mg/kg, iv or 1 mg/kg, po; format: ADME, organism-based; conditions: in vivo, read-out: Vdss
[2] = Oral absorption in Han Wistar rat at 1 mg/kg; format: ADME, organism-based; conditions: in vivo, read-out: Fabs
[3] = Intrinsic clearance in rat hepatocytes assessed per million cells; format: ADME, cell-based, Hepatocyte; conditions: read-out: CLH
[4] = Intrinsic clearance in human hepatocytes assessed per million cells; format: ADME, cell-based, Hepatocyte; conditions: read-out: CLH
[5] = Stability in pH 5 buffer solution at 37 degC measured over 2 days; format: physicochemical; conditions: pH 5, 48 h
[6] = target: T1, Nuclear receptor ROR-beta (Homo sapiens, UniProt Q92753); experiment: Displacement of [3H]ATRA from 6H-AVI-GST-TEV-human RORbeta (T221 to K470 residues) pre-incubated for 30 mins before [3H]ATRA addition and measurted ater 18 to 23 hrs by scintillation proximity assay
T1 sequence (Q92753 whole entry): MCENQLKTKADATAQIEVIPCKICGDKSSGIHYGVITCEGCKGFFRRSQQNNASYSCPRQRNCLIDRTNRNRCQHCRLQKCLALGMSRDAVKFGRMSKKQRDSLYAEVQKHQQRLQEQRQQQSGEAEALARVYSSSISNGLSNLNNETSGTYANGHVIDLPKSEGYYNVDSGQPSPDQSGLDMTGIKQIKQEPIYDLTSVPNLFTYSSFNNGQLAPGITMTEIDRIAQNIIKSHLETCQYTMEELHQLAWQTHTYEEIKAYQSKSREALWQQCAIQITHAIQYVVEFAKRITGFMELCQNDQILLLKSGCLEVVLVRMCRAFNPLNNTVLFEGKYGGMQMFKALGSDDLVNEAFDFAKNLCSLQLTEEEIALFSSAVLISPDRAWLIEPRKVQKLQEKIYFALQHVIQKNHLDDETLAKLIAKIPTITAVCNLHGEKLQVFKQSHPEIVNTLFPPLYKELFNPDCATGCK

[7] = target: T2, Nuclear receptor ROR-alpha (Homo sapiens, UniProt P35398); experiment: Agonist activity at His6-tcs-human RORalpha LBD assessed as stimulation of biotinylated PGC1alpha (130 to 154 residues) peptide recruitment incubated for 1 hr by HTRF-FRET assay; conditions: read-out: IC50 (the source's name)
T2 sequence (P35398 whole entry): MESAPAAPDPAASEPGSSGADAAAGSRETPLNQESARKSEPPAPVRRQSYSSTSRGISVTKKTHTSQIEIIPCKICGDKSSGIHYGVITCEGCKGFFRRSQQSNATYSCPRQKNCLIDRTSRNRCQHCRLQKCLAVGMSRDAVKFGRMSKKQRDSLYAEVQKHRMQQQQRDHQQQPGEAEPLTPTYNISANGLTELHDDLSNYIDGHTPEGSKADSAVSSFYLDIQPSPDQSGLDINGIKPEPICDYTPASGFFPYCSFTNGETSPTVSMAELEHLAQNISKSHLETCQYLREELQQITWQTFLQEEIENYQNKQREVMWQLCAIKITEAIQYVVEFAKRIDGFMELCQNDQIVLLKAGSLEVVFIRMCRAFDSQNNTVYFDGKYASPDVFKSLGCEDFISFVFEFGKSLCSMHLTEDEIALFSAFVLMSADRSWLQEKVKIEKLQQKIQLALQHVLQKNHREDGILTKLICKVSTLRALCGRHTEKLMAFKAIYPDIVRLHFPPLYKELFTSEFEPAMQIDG

[8] = Stability in pH 8 buffer solution at 37 degC measured over 2 days; format: physicochemical; conditions: pH 8, 48 h
[9] = Stability in pH 7.4 buffer solution at 37 degC measured over 2 days; format: physicochemical; conditions: pH 7.4, 48 h
[10] = Distribution coefficient between 1-octanol and aqueous phosphate buffer, logD of the compound in pH 7.4 buffer; format: physicochemical; conditions: 1-octanol/aqueous phosphate buffer
physchem = conditions: aqueous buffer, pH 7.4
Description: Solubility in aqueous buffer at pH 7.4

[11] = Permeability from basolateral to apical side in human Caco2 cells; format: ADME, cell-based; conditions: for permeability: Caco-2
[12] = target: T2, Nuclear receptor ROR-alpha; experiment: Inverse agonist activity at His6-tcs-human RORalpha LBD assessed as inhibition of biotinylated PGC1alpha (130 to 154 residues) peptide recruitment incubated for 1 hr by HTRF-FRET assay
hERG (KCNH2) = hERG (KCNH2) (Homo sapiens, UniProt Q12809); experiment: Inhibition of human ERG at 11 uM
[13] = Efflux ratio of permeability in human Caco2 cells; format: ADME, cell-based; conditions: Caco-2
[14] = Permeability from apical to basolateral side in human Caco2 cells; format: ADME, cell-based; conditions: for permeability: Caco-2
[15] = target: T3, Nuclear receptor ROR-gamma (Homo sapiens, UniProt P51449); experiment: Inverse agonist activity at RORgammat in human TH17 cells assessed as inhibition of IL17 release incubated for 4 days by HTRF assay; format: cell-based
T3 sequence (P51449 whole entry): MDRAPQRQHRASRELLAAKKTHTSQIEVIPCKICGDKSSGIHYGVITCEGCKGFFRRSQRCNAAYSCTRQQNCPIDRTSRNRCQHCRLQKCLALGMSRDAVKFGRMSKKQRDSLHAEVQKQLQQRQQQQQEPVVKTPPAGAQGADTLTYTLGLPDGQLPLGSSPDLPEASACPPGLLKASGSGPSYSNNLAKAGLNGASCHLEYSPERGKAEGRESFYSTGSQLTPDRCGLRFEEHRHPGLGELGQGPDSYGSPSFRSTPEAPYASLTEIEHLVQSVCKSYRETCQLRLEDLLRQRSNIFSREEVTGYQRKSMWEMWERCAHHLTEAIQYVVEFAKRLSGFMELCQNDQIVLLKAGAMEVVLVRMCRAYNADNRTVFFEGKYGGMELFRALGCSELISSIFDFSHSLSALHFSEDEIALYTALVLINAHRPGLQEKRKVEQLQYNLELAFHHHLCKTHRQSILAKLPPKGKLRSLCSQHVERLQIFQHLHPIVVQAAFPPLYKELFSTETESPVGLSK

[16] = target: T3, Nuclear receptor ROR-gamma
Description: Displacement of [3H]-2-(4-(ethylsulfonyl)phenyl)-N-(4-(2-(methoxymethyl)phenyl)thiophen-2-yl)acetamide from purified N-(HN)6-GST-TCS-human RORgammat (258 to 518 residues) incubated for 16 hrs by scintillation proximity assay

[17] = Oral bioavailability in Han Wistar rat at 1 mg/kg; format: ADME, organism-based; conditions: in vivo
[18] = target: T3, Nuclear receptor ROR-gamma; remark: listed apart in the source
[19] = Unbound fraction in human plasma by equilibrium dialysis; format: ADME, cell-free
[20] = Half life in Han Wistar rat at 0.5 mg/kg, iv or 1 mg/kg, po; format: ADME, organism-based; conditions: in vivo
[21] = Clearance in Han Wistar rat at 0.5 mg/kg, iv or 1 mg/kg, po; format: ADME, organism-based; conditions: in vivo
[22] = Cytotoxicity in human Th17 cells assessed as effect on cell viability by cell-titer-Glo luminescent cell viability assay relative to control; format: cell-based; conditions: read-out: Efficacy
[23] = Selectivity index, ratio of cytotoxicity in human Th17 cells to IC50 for inverse agonist activity at RORgammat in human TH17 cells assessed as inhibition of IL17 release; format: toxicity, cell-based
Homo sapiens = experiment: Reduction in psoriasis-severity index in psoriasis patient dosed orally during phase 2a study; format: functional; parameters: scale not given: the % may be the effect or the level left

Chain of hERG (KCNH2) (Q12809 whole entry): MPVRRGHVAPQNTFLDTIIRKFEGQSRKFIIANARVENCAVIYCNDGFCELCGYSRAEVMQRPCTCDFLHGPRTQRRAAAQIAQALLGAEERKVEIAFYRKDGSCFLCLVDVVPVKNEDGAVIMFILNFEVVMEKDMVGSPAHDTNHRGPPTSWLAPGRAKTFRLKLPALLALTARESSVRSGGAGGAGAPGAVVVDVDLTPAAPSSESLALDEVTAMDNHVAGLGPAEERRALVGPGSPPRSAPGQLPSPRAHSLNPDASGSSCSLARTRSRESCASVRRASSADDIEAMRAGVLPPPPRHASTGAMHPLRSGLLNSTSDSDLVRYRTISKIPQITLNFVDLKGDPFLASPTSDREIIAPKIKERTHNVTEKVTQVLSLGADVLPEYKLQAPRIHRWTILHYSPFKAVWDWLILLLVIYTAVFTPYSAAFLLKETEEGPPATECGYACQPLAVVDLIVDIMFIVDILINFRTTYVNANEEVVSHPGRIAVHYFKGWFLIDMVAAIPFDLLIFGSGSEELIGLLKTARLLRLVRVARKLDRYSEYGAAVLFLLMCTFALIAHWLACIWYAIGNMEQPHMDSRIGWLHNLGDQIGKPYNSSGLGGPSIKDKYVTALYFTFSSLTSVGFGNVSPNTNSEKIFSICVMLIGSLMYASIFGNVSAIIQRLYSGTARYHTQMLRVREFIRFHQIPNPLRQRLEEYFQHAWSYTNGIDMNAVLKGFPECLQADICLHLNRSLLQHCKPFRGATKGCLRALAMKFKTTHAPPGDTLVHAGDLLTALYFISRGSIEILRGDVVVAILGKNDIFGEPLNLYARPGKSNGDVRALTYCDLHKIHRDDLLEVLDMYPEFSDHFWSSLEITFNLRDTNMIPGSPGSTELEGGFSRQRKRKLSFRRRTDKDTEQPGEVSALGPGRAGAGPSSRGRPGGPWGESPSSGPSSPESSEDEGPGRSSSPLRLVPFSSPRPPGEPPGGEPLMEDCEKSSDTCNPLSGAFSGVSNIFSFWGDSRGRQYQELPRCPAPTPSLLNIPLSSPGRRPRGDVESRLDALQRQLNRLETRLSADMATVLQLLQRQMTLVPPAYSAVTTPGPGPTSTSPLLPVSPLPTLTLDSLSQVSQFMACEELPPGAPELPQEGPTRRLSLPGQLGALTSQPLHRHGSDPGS

| Structure (SMILES) | Vd [1] | Fa [2] | hepatocyte CLint [3] | hepatocyte CLint [4] | IC50 [6] | EC50 [7] | logD [10] | solubility (physchem) | IC50 [12] | inhibition at 11 µM (hERG (KCNH2)) | IC50 [15] | IC50 [16] | bioavailability [17] | IC50 [18] | fraction unbound [19] | half-life [20] | clearance [21] | permeability [11] | Ratio [13] | permeability [14] | other results |
| --- | --- | --- | --- | --- | --- | --- | --- | --- | --- | --- | --- | --- | --- | --- | --- | --- | --- | --- | --- | --- | --- |
| CCS(=O)(=O)c1ccc([C@@H](NC(C)=O)C(=O)Nc2cc(-c3cccnc3OCc3ccc(OC(F)(F)F)cc3)cs2)cc1 | 2.4 L/kg | < 1.2% | 8.9 to 12 µL/min/1e6 cells | 8.5 µL/min/1e6 cells | > 10000 nM | > 33000 nM | 4.7 | 0.3 µM (≈ 0.19 µg/mL) | 9400 nM | 8% | 11 nM | 3 nM | < 1% | 34 nM | 0.001 | 4.3 h | 12 mL/min/kg | – | – | – | Stability [5]: Stable; Stability [8]: Stable; Stability [9]: Stable; Papp B→A ([11]; Caco-2, read-out: permeability): 42 ×10⁻⁶ cm/s; efflux ratio [13]: > 1500; Papp A→B ([14]; Caco-2, read-out: permeability): < 0.001 ×10⁻⁶ cm/s |
| CCS(=O)(=O)c1ccc(C(NC(C)=O)C(=O)Nc2cc(-c3cc(C#N)cnc3OCC(F)(F)F)cs2)cc1 (centres undefined) | – | – | < 1 µL/min/1e6 cells | – | > 10000 nM | > 33000 nM | 3.7 | 3.6 µM (≈ 2.04 µg/mL) | 600 nM | 3% | 49 nM | 7 nM | – | 72 nM | 0.002 | – | – | – | – | – | – |
| CCS(=O)(=O)c1ccc(CC(=O)Nc2cc(-c3cccnc3OCc3ccc(OC(F)(F)F)cc3)cs2)cc1 | 3.8 L/kg | 30% | 40 µL/min/1e6 cells | 8.6 µL/min/1e6 cells | > 10000 nM | > 33000 nM | – | 0.7 µM (≈ 0.404 µg/mL) | > 33000 nM | 0% | 25 nM | 7 nM | 10% | 30 nM | < 0.0002 | 1.4 h | 46.5 mL/min/kg | Impermeable | Impermeable | Impermeable | Emax [22]: 40%; selectivity ratio [23]: 100 |
| CCS(=O)(=O)c1ccc(CC(=O)Nc2cc(-c3cc(C#N)cnc3OCC(F)(F)F)cs2)cc1 | 0.23 L/kg | 36% | 7.5 µL/min/1e6 cells | 5.9 µL/min/1e6 cells | – | > 33000 nM | – | 0.2 µM (≈ 0.102 µg/mL) | 6200 nM | 47% | 65 nM | 2 nM | 36% | 30 nM | 0.0006 | 4.4 h | 0.8 mL/min/kg | Impermeable | Impermeable | Impermeable | – |
| CCS(=O)(=O)c1ccc([C@H](NC(C)=O)C(=O)Nc2cc(-c3cccnc3OCc3ccc(OC(F)(F)F)cc3)cs2)cc1 | – | – | 18 µL/min/1e6 cells | – | – | – | 4.7 | – | – | – | 23 nM | 270 nM | – | 3530 nM | – | – | – | – | – | – | Stability [5]: Stable; Stability [8]: Stable; Stability [9]: Stable |
| CCS(=O)(=O)c1ccc(CC(=O)Nc2cc(-c3cccnc3Oc3ccc(OC(F)(F)F)cc3)cs2)cc1 | 2.8 L/kg | 67% | 20 µL/min/1e6 cells | 11.9 µL/min/1e6 cells | – | > 33000 nM | – | 2.5 µM (≈ 1.41 µg/mL) | > 33000 nM | 14% | 144 nM | 33 nM | 45% | – | < 0.001 | 1.6 h | 24 mL/min/kg | Impermeable | Impermeable | Impermeable | – |
| CCS(=O)(=O)c1ccc(CNC(=O)c2cnc3c(c2)CN(C[C@H]2CC[C@H](C(F)(F)F)CC2)[C@H]3C(C)C)nc1 | – | – | – | – | – | – | – | – | – | – | – | – | – | – | – | – | – | – | – | – | Activity (Homo sapiens): 24% |
